What all share (assay): NCI anticancer screen, dose series, 48 h
Assay [1] concerns SK-MEL-5 melanoma.
Assay [2] deals with SR leukemia.
Assay [3] concerns TK-10 renal.
The subject of assay [4] is MDA-MB-231 breast.
Assay [5] deals with SK-MEL-28 melanoma.
The test system of assay [6] is NCI/ADR-RES ovarian.
Assay [7] concerns SF-268 CNS.
Assay [8] has as its system HCT-116 colon.
Assay [9] deals with OVCAR-5 ovarian.
The subject of assay [10] is UACC-62 melanoma.

The structures appear in SMILES notation.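 Five compound concentrations were applied to cells in 96-well plates for 48 hours; endpoints were derived by simple linear interpolation of the resulting dose-response curve. GI50 = concentration required for 50% inhibition of growth. TGI denotes the concentration required for complete inhibition of growth.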

With `Cn1ncc2cc(-c3cnc(N)c(Cl)c3N3CCC4(CCNC4=O)CC3)ccc21`, the GI50 is 11.3 µM in assay [1]; 6.4 µM in assay [2]; 36.1 µM in assay [3]; 23 µM in [4]; 33 µM in [5]; 32.8 µM in assay [6]. The GI50 is 21.3 µM in assay [7], 37.4 µM in [8], over 100 µM in assay [9] and 30.7 µM in assay [10]. Moreover, the TGI in assay [1] is 23.8 µM; in assay [2], 57.2 µM; in [3] it was over 100 µM; in assay [4] it was 86.3 µM; in assay [5] it was over 100 µM; in assay [6], over 100 µM. In addition, the TGI in assay [7], in assay [8], in assay [9] and in assay [10] was over 100 µM throughout.

With `CO/N=C(\c1ccccc1)c1cnn(-c2ccccc2)c1N`, the GI50 in [1], in assay [2], in [3], in [4], in [5] and in assay [6] was over 25 µM throughout. The GI50 in [7], in assay [8], in [9] and in assay [10] was over 25 µM each time. For the same compound, the TGI in assay [1], in assay [2], in assay [3], in assay [4], in assay [5] and in [6] was over 25 µM in each case. The TGI in assay [7], in assay [8], in [9] and in assay [10] was over 25 µM in each case.

In the case of `CS(=O)(=O)c1nccc(-c2c(-c3cccc(OCc4ccc(F)cc4)c3)nc3sccn23)n1`, the GI50 was 2.51 µM in assay [1]; 5.45 µM in assay [2]; over 94.2 µM in [3]; 34.3 µM in assay [4]; 23.8 µM in assay [5]; 43.2 µM in [6]. Further, the GI50 in assay [7] is 40.1 µM; in assay [8], 5.65 µM; in assay [9], over 100 µM; in assay [10], 17.5 µM. Further, the TGI in assay [1] is over 24.2 µM; in assay [2] it was over 100 µM; in assay [3] it was over 100 µM; in assay [4], over 100 µM; in [5] it was over 100 µM; in assay [6], over 100 µM. In addition, the TGI in assay [7], in assay [8], in assay [9] and in [10] was over 100 µM throughout.

In the case of `O=C1c2ccn(CCCCN3CCOCC3)c2C(=O)c2c1c(O)c1ccccc1c2O`, the GI50 was 4.55 µM in [2]; 1.56 µM in assay [3]; 12.7 µM in assay [4]; 25.8 µM in assay [5]; 4.44 µM in assay [6]; 9.44 µM in assay [7]. Further, the figures for the GI50 in assay [8] and in assay [9] were 7.03 µM and 11.1 µM, respectively. For the same compound, the TGI is 33.6 µM in assay [2]; 7.7 µM in [3]; 32.4 µM in [4]; over 100 µM in [5]; 23.8 µM in assay [6]; 30.9 µM in assay [7]. The TGI in assay [8] is 19.9 µM; in [9], 23.8 µM.

Regarding `COc1ccc(-c2cc3c4c(nc5ccccc5c4c2)CC(c2cc(OC)c(OC)c(OC)c2)O3)cc1` (configuration not stated), the GI50 is 2.67 µM in assay [1]; 2.08 µM in [2]; 2.37 µM in assay [3]; 2.15 µM in assay [4]; 2.36 µM in [5]; 3.03 µM in assay [6]. Also, the GI50 in [7] was 1.72 µM; in assay [8] it was 1.31 µM; in [10], 3.54 µM. The TGI in assay [1] was 8.27 µM; in assay [2], over 100 µM; in [3], 5.28 µM; in assay [4], 7.16 µM; in assay [5] it was 6.62 µM; in assay [6], 47.3 µM. Also, the TGI in assay [7] was 5.48 µM; in assay [8] it was 4.15 µM; in [10], 20.1 µM.

As for `CN(C(=O)C1CCCCC1)c1ccccc1I(=O)=O`, the GI50 in assay [1] was 20.3 µM; in [2], 13.7 µM; in [3], 27.4 µM; in assay [4], 70 µM; in [5], 22.8 µM; in [6] it was 35.9 µM. For the same compound, the GI50 in assay [7] was 36.8 µM; in assay [9], 37.2 µM; in assay [10] it was 72.4 µM. Also, the TGI in [1] is 73.8 µM; in assay [2], 36.1 µM; in assay [3], over 100 µM; in assay [4] it was over 100 µM; in [5], 56.9 µM; in assay [6], over 100 µM. For the same compound, the TGI in [7], in [9] and in assay [10] was over 100 µM in each case.

These data come from PubChem BioAssay (NCI).
